Source: ChEMBL document CHEMBL6177993, “De Novo 3-(Phenylcarbamoyl) Benzoate Analogues: Efficacy against Multidrug-Resistant S. aureus and Elucidation of the Biodistribution Profile” (J Med Chem, 2025)
In brackets after ≈: the same amount, converted by molar mass. Activity calls are given as the source filed them. The calls are words filed in the database; no cut-off is given here.

Columns and labels:
Enterococcus faecalis = test: Antibacterial activity against Enterococcus faecalis ATCC 35550 assessed as reduction in bacterial growth measured after 18 to 24 hrs by broth microdilution method; assay type: functional; conditions: time 18-24 hrs
Bacillus subtilis = test: Antibacterial activity against Bacillus subtilis IITKSM1 assessed as reduction in bacterial growth measured after 18 to 24 hrs by broth microdilution method; assay type: functional; conditions: time 18-24 hrs
Staphylococcus aureus [1] = test: Antibacterial activity against Staphylococcus aureus ATCC 29213 assessed as reduction in bacterial growth measured after 18 to 24 hrs by broth microdilution method; assay type: functional; conditions: time 18-24 hrs
Pseudomonas aeruginosa = test: Antibacterial activity against Pseudomonas aeruginosa ATCC 27853 assessed as reduction in bacterial growth measured after 18 to 24 hrs by broth microdilution method; assay type: functional; conditions: time 18-24 hrs
Escherichia coli = test: Antibacterial activity against Escherichia coli ATCC 25922 assessed as reduction in bacterial growth measured after 18 to 24 hrs by broth microdilution method; assay type: functional; conditions: time 18-24 hrs
[2] = Solubility of the compound in distilled water; assay type: physicochemical; conditions: buffer
Staphylococcus aureus [3] = test: Antibacterial activity against methicillin-sensitive Staphylococcus aureus ATCC 29213 assessed as reduction in bacterial growth measured after 18 to 24 hrs by broth microdilution method; assay type: functional; conditions: time 18-24 hrs
Staphylococcus aureus [4] = test: Antibacterial activity against methicillin-resistant Staphylococcus aureus NRS 119 assessed as reduction in bacterial growth measured after 18 to 24 hrs by broth microdilution method; assay type: functional; conditions: time 18-24 hrs
Staphylococcus aureus [5] = test: Antibacterial activity against methicillin-resistant Staphylococcus aureus NRS 129 assessed as reduction in bacterial growth measured after 18 to 24 hrs by broth microdilution method; assay type: functional; conditions: time 18-24 hrs
Staphylococcus aureus [6] = test: Antibacterial activity against methicillin-resistant Staphylococcus aureus NRS 186 assessed as reduction in bacterial growth measured after 18 to 24 hrs by broth microdilution method; assay type: functional; conditions: time 18-24 hrs
Staphylococcus aureus [7] = test: Antibacterial activity against methicillin-resistant Staphylococcus aureus NRS 191 assessed as reduction in bacterial growth measured after 18 to 24 hrs by broth microdilution method; assay type: functional; conditions: time 18-24 hrs
Staphylococcus aureus [8] = test: Antibacterial activity against methicillin-resistant Staphylococcus aureus NRS 192 assessed as reduction in bacterial growth measured after 18 to 24 hrs by broth microdilution method; assay type: functional; conditions: time 18-24 hrs
Staphylococcus aureus [9] = test: Antibacterial activity against methicillin-resistant Staphylococcus aureus NRS 194 assessed as reduction in bacterial growth measured after 18 to 24 hrs by broth microdilution method; assay type: functional; conditions: time 18-24 hrs
Staphylococcus aureus [10] = test: Antibacterial activity against methicillin-resistant Staphylococcus aureus NRS 198 assessed as reduction in bacterial growth measured after 18 to 24 hrs by broth microdilution method; assay type: functional; conditions: time 18-24 hrs
Staphylococcus aureus [11] = test: Antibacterial activity against vacomycin-resistant Staphylococcus aureus VRS 1 assessed as reduction in bacterial growth measured after 18 to 24 hrs by broth microdilution method; assay type: functional; conditions: time 18-24 hrs
Staphylococcus aureus [12] = test: Antibacterial activity against vacomycin-resistant Staphylococcus aureus VRS 4 assessed as reduction in bacterial growth measured after 18 to 24 hrs by broth microdilution method; assay type: functional; conditions: time 18-24 hrs
Staphylococcus aureus [13] = test: Antibacterial activity against vacomycin-resistant Staphylococcus aureus VRS 12 assessed as reduction in bacterial growth measured after 18 to 24 hrs by broth microdilution method; assay type: functional; conditions: time 18-24 hrs
[14] = Hemolytic activity in human Red blood cell at 32 ug/ml measured after 1 hrs by spectrophotometric analysis relative to control; assay type: toxicity, cell-based, Erythrocyte; conditions: red blood cells, at 32 µg/mL, read-out: Activity
Staphylococcus aureus [15] = test: Inhibition of biofilm in Staphylococcus aureus ATCC 29213 at 0.5 times MIC measured after 12 hrs by crystal violet staining based analysis relative to control; assay type: functional
Staphylococcus aureus [16] = test: Antibiofilm activity in Staphylococcus aureus ATCC 29213 assessed as disruption of preformed biofilm at 40 times MIC measured after 24 hrs by crystal violet staining based assay relative to control; assay type: functional
Staphylococcus aureus [17] = test: Antibiofilm activity in Staphylococcus aureus ATCC 29213 assessed as disruption of preformed biofilm at 1 times MIC measured after 24 hrs by crystal violet staining based assay relative to control; assay type: functional
Staphylococcus aureus [18] = test: Antibiofilm activity in Staphylococcus aureus ATCC 29213 assessed as disruption of preformed biofilm at 5 times MIC measured after 24 hrs by crystal violet staining based assay relative to control; assay type: functional
Staphylococcus aureus [19] = test: Antibiofilm activity in Staphylococcus aureus ATCC 29213 assessed as disruption of preformed biofilm at 10 times MIC measured after 24 hrs by crystal violet staining based assay relative to control; assay type: functional
Staphylococcus aureus [20] = test: Antibiofilm activity in Staphylococcus aureus ATCC 29213 assessed as disruption of preformed biofilm at 20 times MIC measured after 24 hrs by crystal violet staining based assay relative to control; assay type: functional
Staphylococcus aureus [21] = test: Bactericidal activity against Staphylococcus aureus ATCC 29213 at 4 to 8 time MIC measured after 8 hrs by time-kill assay; assay type: functional, organism-based
Staphylococcus aureus [22] = test: Bactericidal activity against Staphylococcus aureus ATCC 29213 at 4 to 8 time MIC measured within 60 mins by time-kill assay; assay type: functional, organism-based
Staphylococcus aureus [23] = test: Antibacterial activity against Staphylococcus aureus ATCC 29213 measured after 20 passages; assay type: functional, organism-based
Cell membrane = test: Disruption of cell membrane in Staphylococcus aureus ATCC 29213 assessed as increase in PI uptake at 10 times MIC measured after 8 mins by fluorescence based microplate reader analysis
Staphylococcus aureus [24] = test: Antibacterial activity against Staphylococcus aureus ATCC 29213 infected in female BALB/c mouse skin infection model assessed as appearance of smooth dorsal skin at 10 times MIC pre-infected with bacteria followed by compound addition and measured after 24 hrs; assay type: functional, organism-based
Staphylococcus aureus [25] = test: Antibacterial activity against Staphylococcus aureus ATCC 29213 infected in female BALB/c mouse skin infection model assessed as reduction in skin lesions at 10 times MIC pre-infected with bacteria followed by compound addition and measured after 24 hrs; assay type: functional, organism-based
Staphylococcus aureus [26] = test: Antibacterial activity against Staphylococcus aureus ATCC 29213 infected in female BALB/c mouse skin infection model assessed as reduction in number of bacterial cells in skin at 10 times MIC pre-infected with bacteria followed by compound addition and measured after 24 hrs; assay type: functional, organism-based
Staphylococcus aureus [27] = test: Antibacterial activity against Staphylococcus aureus ATCC 29213 infected in female BALB/c mouse skin infection model assessed as reduction in bacterial load at 10 times MIC pre-infected with bacteria followed by compound addition and measured after 24 hrs relative to control; assay type: functional; design: scale not given: the % may be the effect or the level left
Staphylococcus aureus [28] = test: Antibacterial activity against Staphylococcus aureus ATCC 29213 infected in female BALB/c mouse skin infection model assessed as log reduction in bacterial load at 10 times MIC pre-infected with bacteria followed by compound addition and measured after 24 hrs; assay type: functional
[29] = Toxicity in female BALB/c mouse assessed as effect on body weight measured after 24 hrs; conditions: in vivo
[30] = Toxicity in female BALB/c mouse assessed as effect on heart measured after 24 hrs by H and E staining based analysis; assay type: tissue-based; conditions: in vivo
[31] = Toxicity in female BALB/c mouse assessed as effect on spleen measured after 24 hrs by H and E staining based analysis; assay type: tissue-based; conditions: in vivo
[32] = Drug distribution in female BALB/c mouse heart measured after 24 hrs; assay type: ADME, tissue-based; conditions: in vivo
[33] = Drug distribution in female BALB/c mouse skin measured after 24 hrs; assay type: ADME, tissue-based, Skin of body; conditions: in vivo
[34] = Drug distribution in female BALB/c mouse spleen measured after 24 hrs; assay type: ADME, tissue-based; conditions: in vivo
[35] = Drug distribution in female BALB/c mouse liver measured after 24 hrs; assay type: ADME, tissue-based; conditions: in vivo
[36] = Drug distribution in female BALB/c mouse kidney measured after 24 hrs; assay type: ADME, tissue-based; conditions: in vivo

Compound: O=C(O)c1cccc(C(=O)Nc2c(C(c3ccc(F)cc3)c3ccc(F)cc3)cc(Cl)cc2C(c2ccc(F)cc2)c2ccc(F)cc2)c1
- MIC (Enterococcus faecalis): 1 µg/mL (≈ 1.47 µM)
- MIC (Bacillus subtilis): 1 µg/mL (≈ 1.47 µM)
- MIC (Staphylococcus aureus [1]): 1 µg/mL (≈ 1.47 µM)
- MIC (Pseudomonas aeruginosa): > 64 µg/mL
- MIC (Escherichia coli): > 64 µg/mL
- solubility [2]: Insoluble
- MIC (Staphylococcus aureus [3]): 2 µg/mL (≈ 2.94 µM)
- MIC (Staphylococcus aureus [4]): 2 µg/mL (≈ 2.94 µM)
- MIC (Staphylococcus aureus [5]): 2 µg/mL (≈ 2.94 µM)
- MIC (Staphylococcus aureus [6]): 2 µg/mL (≈ 2.94 µM)
- MIC (Staphylococcus aureus [7]): 2 µg/mL (≈ 2.94 µM)
- MIC (Staphylococcus aureus [8]): 2 µg/mL (≈ 2.94 µM)
- MIC (Staphylococcus aureus [9]): 2 µg/mL (≈ 2.94 µM)
- MIC (Staphylococcus aureus [10]): 2 µg/mL (≈ 2.94 µM)
- MIC (Staphylococcus aureus [11]): 2 µg/mL (≈ 2.94 µM)
- MIC (Staphylococcus aureus [12]): 2 µg/mL (≈ 2.94 µM)
- MIC (Staphylococcus aureus [13]): 2 µg/mL (≈ 2.94 µM)
- hemolysis at 1 h, 32 ug/ml [14]: 70%
- inhibition (INH) (Staphylococcus aureus [15]): >50%
- Activity (Staphylococcus aureus [16]): 31.47%
- Activity (Staphylococcus aureus [17]): 7.29%
- Activity (Staphylococcus aureus [18]): 7.1%
- Activity (Staphylococcus aureus [19]): 11.84%
- Activity (Staphylococcus aureus [20]): 18.42%
- Activity (Staphylococcus aureus [21]): Active
- Activity (Staphylococcus aureus [22]): Active
- Activity (Staphylococcus aureus [23]): Active
- Activity (Cell membrane): Active
- Activity (Staphylococcus aureus [24]): Active
- Activity (Staphylococcus aureus [25]): Active
- Activity (Staphylococcus aureus [26]): Active
- Activity (Staphylococcus aureus [27]): ~83%
- Activity (Staphylococcus aureus [28]): 0.8 log10CFU/ml
- Activity [29]: Non-toxic
- Activity [30]: Non-toxic
- Activity [31]: Non-toxic
- Drug uptake [32]: 7.7 nmol/mg
- Drug uptake [33]: 5.93 nmol/mg
- Drug uptake [34]: 9.01 nmol/mg
- Drug uptake [35]: 3.92 nmol/mg
- Drug uptake [36]: 4.02 nmol/mg
